Results on ten molecules are retold here after ChEMBL document CHEMBL1149917, “Peptidomimetic growth hormone secretagogues: synthesis and biological activities of analogs varied at the indole nucleus of the prototypical spiropiperidine L-162,752” (Bioorg Med Chem Lett, 1996).

Where only a bound is given, the exact number is not on record here.

The species entered for the experiment is Rattus norvegicus. As to the kind of experiment: Compound was tested for intrinsic growth hormone(GH) secretory potency in the rat pituitary cell assay. It counts as functional. To be noted: Pituitary gland cell.
Turning to `CC(C)(N)CC(=O)N[C@H](COCc1ccccc1)C(=O)N1CCC2(CCc3ccccc32)CC1`, the EC50 is above 1000 nM. The value for `CC(C)(N)C(=O)N[C@H](Cc1ccccc1)C(=O)N1CCC2(CCc3ccccc32)CC1` was 250 nM. `CC(C)(N)C(=O)N[C@H](Cc1cccc2ccccc12)C(=O)N1CCC2(CCc3ccccc32)CC1` registered an EC50 of 1100 nM. `C[C@@H](O)CNC(C)(C)CC(=O)N[C@H](COCc1ccccc1)C(=O)N1CCC2(CCc3ccccc32)CC1` had an EC50 of 240 nM. The value for `CC(C)(N)C(=O)N[C@H](Cc1ccc2ccccc2c1)C(=O)N1CCC2(CCc3ccccc32)CC1` was 900 nM; that for `C[C@@H](O)CNC(C)(C)CC(=O)N[C@H](CCc1ccccc1)C(=O)N1CCC2(CCc3ccccc32)CC1` was 200 nM; that for `CC(C)(N)CC(=O)N[C@H](CCc1ccccc1)C(=O)N1CCC2(CCc3ccccc32)CC1` was above 1000 nM. The value for `CC(C)(N)C(=O)N[C@H](CSCc1ccccc1)C(=O)N1CCC2(CCc3ccccc32)CC1` was 65 nM; that for `CC(C)(CC(=O)N[C@H](CCc1ccccc1)C(=O)N1CCC2(CCc3ccccc32)CC1)NC[C@H](O)CO` was 170 nM; that for `CC(C)(N)C(=O)N[C@H](Cc1csc2ccccc12)C(=O)N1CCC2(CCc3ccccc32)CC1` was 490 nM.

In general, EC50 refers to the concentration needed to bring the measured effect to its halfway point. The low end stands for higher potency in that assay, the high end for lower potency in that assay.
